From article PMC10412585 (Nature Communications, 2023) come the findings set out here.

In one experiment the test system is CD94/NKG2C. Nature of the experiment: Steady-state SPR of peptide-HLA-E single chain trimers with CD94/NKG2C. Format: binding, human. To be noted: from Figure 5C KD values, stated in author rebuttal. How it is done: Specifically, we measured CD94/NKG2A and CD94/NKG2C affinity for HLA-E complexed with three sets of peptides. […] Third, we included […] peptide as a positive control.
Steady-state surface plasmon resonance experiments were performed with a Biacore T200 instrument. CD94/NKG2x in HBS-EP+ buffer was injected as analyte in a concentration range of 0.1 μM to 102.4 μM and flow rate of 10 μL/min at 25 °C. Data was fit with Prism 9.4 (GraphPad Software Inc; San Diego CA) to a “one site, specific binding” model. Sensorgrams are included in Supplemental Fig. 13.
For investigating WN peptides, biotinylated pMHC was immobilized at approximately 400 Response Units (RU) on a Series S SA sensor chip (Cytiva). […] CD94/NKG2A was injected followed by CD94/NKG2C.
For investigating human-derived peptides, Series S CM5 chips (Cytiva) were coupled to neutravidin and utilized. Biotinylated pMHC was immobilized at approximately 400 RU. On one chip, […] CD94/NKG2A was injected followed by CD94/NKG2C. On a second chip, PISD55-63 HLA-E SCT, AKAP6_388-396 HLA-E SCT, GTF3C5_293-301 HLA-E SCT, and reference HLA-DR401 were immobilized. CD94/NKG2C was injected followed by CD94/NKG2A. Rmax, fit values were calculated by Biacore software. Rmax, theoretical values were calculated using the analyte/ligand mass ratio (0.66) multiplied by the amount of ligand coupled to the chip.

A further experiment deals with HLA-E. Kind of experiment: HLA-E surface stabilization assay with RMA-S/HLA-E cells. Format: cell-based, human. To be noted: peptide 3-300 µM (Fig. 3: 30 µM) in OptiMEM, 16 h, 37 °C, anti-HLA-E 3D12, flow cytometry, n = 4 replicate experiments.
The next experiment has as its system NKG2A+/NKG2C- NK cells. Nature of the experiment: NK cell activation assay with peptide-pulsed K562/HLA-E cells, NKG2A+/NKG2C- NK cells. Format: cell-based, human. Conditions: K562/HLA-E target cells, 300 µM peptide ([…] µM BFAR263-271), E:T 2:1, 6 h; degranulation (CD107a), IFN-γ, TNF, CCL3; flow cytometry.
The test system of a further experiment is NKG2A-/NKG2C+ NK cells. Nature of the experiment: NK cell activation assay with peptide-pulsed K562/HLA-E cells, NKG2A-/NKG2C+ NK cells. Type of experiment: cell-based, human. Conditions: K562/HLA-E target cells, 300 µM peptide ([…] µM BFAR263-271), E:T 2:1, 6 h; degranulation (CD107a), IFN-γ, TNF, CCL3; flow cytometry. A general note: Flow cytometry measures light scatter and fluorescence of single cells or particles in a stream.

In the case of VMAPRTLFL [positive control], the “weaker affinity of CD94/NKG2C compared to CD94/NKG2A” value was ~ 3 fold in the experiment on CD94/NKG2C and ~ 2.7 fold in the experiment with CD94/NKG2C (listed as VL9).

For “VNPGRSLFL [BFAR263-271, human peptide from Bifunctional apoptosis regulator]”, in the experiment on HLA-E, the “stabilization of HLA-E surface expression” value is reported as “weak but detectable stabilization”. For the same sequence, in the experiment with NKG2A+/NKG2C- NK cells, the “inhibitory effects on NKG2A+ cells” value is on record as “minimal inhibitory effects”. Moreover, the “activating effects on NKG2C+ cells” value in the experiment with NKG2A-/NKG2C+ NK cells was “clear activating effects”.
